Test results reported in ChEMBL document CHEMBL1649421, “New drug-like hydroxyphenylnaphthol steroidomimetics as potent and selective 17β-hydroxysteroid dehydrogenase type 1 inhibitors for the treatment of estrogen-dependent diseases” (J Med Chem, 2011).

Columns and labels:
[1] = target: Estrogen receptor beta (Homo sapiens) (UniProt Q92731); test: Displacement of [3H]E2 from human recombinant ERbeta by liquid scintillation counting relative to estradiol
[2] = target: T1, Estrogen receptor (Homo sapiens) (UniProt P03372); test: Displacement of [3H]E2 from human recombinant ERalpha by liquid scintillation counting relative to estradiol
T1 sequence (whole entry): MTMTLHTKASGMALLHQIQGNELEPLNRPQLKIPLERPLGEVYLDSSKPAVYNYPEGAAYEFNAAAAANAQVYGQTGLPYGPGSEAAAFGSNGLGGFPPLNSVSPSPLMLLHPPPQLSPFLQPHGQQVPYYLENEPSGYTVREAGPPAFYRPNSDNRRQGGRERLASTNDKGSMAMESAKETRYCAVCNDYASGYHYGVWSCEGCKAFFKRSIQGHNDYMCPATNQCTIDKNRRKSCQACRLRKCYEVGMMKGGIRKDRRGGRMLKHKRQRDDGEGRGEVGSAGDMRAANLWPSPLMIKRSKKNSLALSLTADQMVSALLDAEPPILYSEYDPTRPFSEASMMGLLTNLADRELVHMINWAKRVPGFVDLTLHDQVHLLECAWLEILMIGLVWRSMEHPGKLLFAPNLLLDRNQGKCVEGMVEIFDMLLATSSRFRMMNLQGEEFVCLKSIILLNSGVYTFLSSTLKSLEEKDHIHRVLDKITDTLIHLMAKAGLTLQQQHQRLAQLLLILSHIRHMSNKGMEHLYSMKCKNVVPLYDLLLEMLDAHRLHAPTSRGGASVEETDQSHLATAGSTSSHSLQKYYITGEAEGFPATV

[3] = target: T2, 17-beta-hydroxysteroid dehydrogenase type 1 (Homo sapiens) (UniProt P14061); test: Inhibition of [3H]E1 binding to human recombinant 17beta-HSD1 expressed in baculovirus-infected Sf9 cells at 100 nM after 10 mins by fluid scintillation counting
T2 sequence (whole entry): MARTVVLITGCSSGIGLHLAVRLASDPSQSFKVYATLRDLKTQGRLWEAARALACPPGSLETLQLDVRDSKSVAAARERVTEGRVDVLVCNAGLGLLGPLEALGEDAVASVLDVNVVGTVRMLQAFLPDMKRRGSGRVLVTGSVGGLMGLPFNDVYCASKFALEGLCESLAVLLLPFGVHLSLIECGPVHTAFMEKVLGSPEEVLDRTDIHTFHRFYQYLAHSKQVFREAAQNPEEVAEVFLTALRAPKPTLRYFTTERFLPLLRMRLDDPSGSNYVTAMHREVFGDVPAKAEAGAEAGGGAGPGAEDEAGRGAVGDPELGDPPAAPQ

[4] = target: T3, 17-beta-hydroxysteroid dehydrogenase type 1 (Homo sapiens, UniProt P14061); test: Displacement of [3H]E1 from 17beta-HSD1 in human T47D cells after 10 mins by fluid scintillation counting; assay type: cell-based
T3 sequence (P14061 whole entry): T2 sequence (whole entry)

[5] = target: T4, 17-beta-hydroxysteroid dehydrogenase type 2 (Homo sapiens) (UniProt P37059); test: Inhibition of [3H]E2 binding to human recombinant 17beta-HSD2 expressed in baculovirus-infected Sf9 cells at 100 nM after 10 mins by fluid scintillation counting
T4 sequence (whole entry): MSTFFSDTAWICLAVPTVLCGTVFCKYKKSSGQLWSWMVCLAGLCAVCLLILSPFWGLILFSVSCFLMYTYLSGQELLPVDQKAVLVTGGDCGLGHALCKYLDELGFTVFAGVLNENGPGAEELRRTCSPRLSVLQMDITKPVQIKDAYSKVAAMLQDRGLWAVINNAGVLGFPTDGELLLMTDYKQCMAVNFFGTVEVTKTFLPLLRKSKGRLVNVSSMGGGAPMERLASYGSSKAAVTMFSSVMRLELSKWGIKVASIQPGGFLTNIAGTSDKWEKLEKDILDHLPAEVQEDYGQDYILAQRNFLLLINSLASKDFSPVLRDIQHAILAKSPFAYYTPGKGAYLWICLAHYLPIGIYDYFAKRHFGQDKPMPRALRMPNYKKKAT

Homo sapiens = organism: Homo sapiens; test: Selectivity ratio of IC50 for human placental 17beta-HSD2 to IC50 for human placental 17beta-HSD1
[6] = target: T3, 17-beta-hydroxysteroid dehydrogenase type 1; test: Displacement of [3H]E1 from human placental 17beta-HSD1 after 10 mins by fluid scintillation counting
[7] = Apparent permeability across human Caco2 cells after 180 mins by LC-MS/MS analysis; assay type: ADME, cell-based; details: Caco-2
[8] = target: T4, 17-beta-hydroxysteroid dehydrogenase type 2 (Homo sapiens); test: Inhibition of [3H]E2 binding to human recombinant 17beta-HSD2 expressed in baculovirus-infected Sf9 cells at 1 uM after 10 mins by fluid scintillation counting
Liver microsomes [9] = test: Metabolic stability in human liver microsomes up to 45 mins by LC-MS/MS analysis; assay type: ADME, Microsome; details: 0.75 h
[10] = target: T2, 17-beta-hydroxysteroid dehydrogenase type 1 (Homo sapiens); test: Inhibition of [3H]E1 binding to human recombinant 17beta-HSD1 expressed in baculovirus-infected Sf9 cells at 1 uM after 10 mins by fluid scintillation counting
Rattus norvegicus [11] = test: Tlast in Wistar rat at 50 mg/kg, po administered as single dose by LC-MS/MS analysis; assay type: ADME, organism-based; set-up: dose 50 mg/kg, route oral; details: in vivo
Rattus norvegicus [12] = test: Clast in Wistar rat at 50 mg/kg, po administered as single dose by LC-MS/MS analysis; assay type: ADME, organism-based; set-up: dose 50 mg/kg, route oral; details: in vivo
[13] = Tmax in Wistar rat at 50 mg/kg, po administered as single dose by LC-MS/MS analysis; assay type: ADME, organism-based; set-up: dose 50 mg/kg, route oral; details: in vivo
[14] = Half life in Sprague-Dawley rat liver microsomes by LC-MS/MS analysis; assay type: ADME, Microsome
[15] = AUC (0 to t) in Wistar rat at 50 mg/kg, po administered as single dose by LC-MS/MS analysis; assay type: ADME, organism-based; set-up: dose 50 mg/kg, route oral; details: plasma
Liver microsomes [16] = test: Intrinsic clearance in Sprague-Dawley rat liver microsomes after 60 mins by LC-MS/MS analysis; assay type: ADME, Microsome; details: 1 h
[17] = Half life in Wistar rat at 50 mg/kg, po administered as single dose by LC-MS/MS analysis; assay type: ADME, organism-based; set-up: dose 50 mg/kg, route oral; details: in vivo
[18] = target: T5, 17-beta-hydroxysteroid dehydrogenase type 2 (Homo sapiens, UniProt P37059); test: Displacement of [3H]E2 from human placental 17beta-HSD2 after 10 mins by fluid scintillation counting
T5 sequence (P37059 whole entry): T4 sequence (whole entry)

[19] = Cmax in Wistar rat at 50 mg/kg, po administered as single dose by LC-MS/MS analysis; assay type: ADME, organism-based; set-up: dose 50 mg/kg, route oral; details: in vivo
Cytochrome P450 1A2 = target: T6, Cytochrome P450 1A2 (Homo sapiens, UniProt P05177); test: Inhibition of human CYP1A2; assay type: ADME
T6 sequence (P05177 whole entry): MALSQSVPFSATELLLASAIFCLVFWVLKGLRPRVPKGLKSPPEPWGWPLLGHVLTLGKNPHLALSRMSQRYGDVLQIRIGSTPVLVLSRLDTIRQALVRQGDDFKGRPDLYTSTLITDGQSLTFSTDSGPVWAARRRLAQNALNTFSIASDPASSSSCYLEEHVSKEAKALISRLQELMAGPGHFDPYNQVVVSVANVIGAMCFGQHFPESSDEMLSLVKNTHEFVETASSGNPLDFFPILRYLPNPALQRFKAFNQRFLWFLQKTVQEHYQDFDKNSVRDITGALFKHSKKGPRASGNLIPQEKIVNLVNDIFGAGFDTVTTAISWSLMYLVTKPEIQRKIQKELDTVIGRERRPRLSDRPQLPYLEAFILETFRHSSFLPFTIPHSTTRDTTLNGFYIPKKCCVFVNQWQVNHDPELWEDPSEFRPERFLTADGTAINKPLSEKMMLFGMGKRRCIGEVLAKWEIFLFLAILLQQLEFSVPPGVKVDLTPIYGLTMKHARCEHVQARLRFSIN

Sequence of Estrogen receptor beta (Homo sapiens) (Q92731 whole entry): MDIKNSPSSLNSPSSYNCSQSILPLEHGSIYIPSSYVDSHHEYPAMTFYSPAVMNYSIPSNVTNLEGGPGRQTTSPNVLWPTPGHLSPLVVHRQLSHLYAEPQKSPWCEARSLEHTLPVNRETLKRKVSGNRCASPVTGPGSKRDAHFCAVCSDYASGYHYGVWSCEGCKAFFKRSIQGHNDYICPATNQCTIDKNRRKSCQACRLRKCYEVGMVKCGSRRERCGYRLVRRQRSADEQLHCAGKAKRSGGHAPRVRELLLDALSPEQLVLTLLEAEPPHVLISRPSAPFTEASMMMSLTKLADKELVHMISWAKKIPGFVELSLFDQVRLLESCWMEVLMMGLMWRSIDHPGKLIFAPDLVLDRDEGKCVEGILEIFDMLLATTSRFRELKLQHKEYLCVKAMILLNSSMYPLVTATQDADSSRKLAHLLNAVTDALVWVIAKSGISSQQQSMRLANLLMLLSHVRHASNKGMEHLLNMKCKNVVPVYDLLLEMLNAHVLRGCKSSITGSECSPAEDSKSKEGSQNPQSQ

Row | Compound | RBA [1] | RBA [2] | inhibition [3] | IC50 [4] | inhibition [5] | Ratio IC50 (Homo sapiens) | IC50 [6] | Papp at 3 h [7] | inhibition [8] | inhibition [10] | further results
1 | CS(=O)(=O)Nc1cccc(-c2c(O)ccc3cc(-c4cccc(O)c4)ccc23)c1 | < 0.01% | 0.01% | 88% | 71 nM | 31% | 27 | 15 nM | 19 ×10⁻⁶ cm/s | 71% | 91% | Stability (Liver microsomes [9]): Stable
2 | Oc1cccc(-c2ccc3c(-c4cccnc4)c(O)ccc3c2)c1 | 0.01% | 0.01% | 87% | 165 nM | 66% | 45 | 26 nM | 14 ×10⁻⁶ cm/s | 90% | 92% | tz (Rattus norvegicus [11]): 8 h; Cz (Rattus norvegicus [12]): 18 ng/mL; Tmax [13]: 2 h; half-life [14]: 0.233 h; AUC(0-t) [15]: 203 ng·h/mL; CL (Liver microsomes [16]): 340 µL/min; half-life [17]: 1.5 h; IC50 [18]: 1160 nM; Cmax [19]: 16 ng/mL; IC50 (Cytochrome P450 1A2): 10 nM
